Here are results for one compound from PMC12027554, “Inhibition of ABCG2 by SCO-101 Enhances Chemotherapy Efficacy in Cancer” (International Journal of Molecular Sciences, 2025).

On the set-up of data set [1]: method as in PMID 32628359. Conditions: four independent Phase I studies; cited from earlier work.
The subject of data set [2] is PANC-1MX100 cells. The experiment in a line: Cell viability assay, mitoxantrone-resistant PANC-1. Format: cell-based, human. Conditions: SCO-101 20 µM, 72 h. On the procedure: Cells were seeded at a density of 0.2–1 × 10^4 cells/well into 96-well plates. One day after seeding, treatments were performed in triplicate for 72 h, or as otherwise indicated in the relevant panel/figure legend and kept at 37 °C/5% CO2. Growth medium alone (“untreated” cells) or DMSO was used as a control.
For MTT assays, media were replaced at the final timepoint with 100 μL of 1:10 MTT reagent (0.5 mg/mL in PBS) diluted in growth medium, and plates were incubated for 3 h. A total of 100 μL/well of stop buffer (50 g Sodium Dodecyl Sulfate, 245 mL ddH2O, 5 mL 1N HCl) was added and plates incubated for 24 h to let colored formazan crystals develop. Optical densities (ODs) were measured with a PowerWave^TM Microplate spectrophotometer (BioTek, Winooski, VT, USA) at 570 nm and 670 nm (background).
Background values were subtracted prior to further analysis. The percentage of cell viability was expressed as relative values versus untreated cells as determined by the various assays. EC50/IC50 values were calculated using GraphPad Prism (v10.4.1) and the in-built non-linear regression [log (inhibitor) vs. response—variable slope (four parameters)] calculation. For determination of synergy scores, the online tool SynergyFinder+ (https://synergyfinder.org access date 15 February 2025) was employed following 4 × 4- or 6 × 6-matrix dose-escalation cell viability experiments. […]

For the compound `O=C(Nc1cc(C(F)(F)F)cc(C(F)(F)F)c1)Nc1ccc(Br)cc1-c1nnn[nH]1` [SCO-101, N-[4-Bromo-2-(1H-1,2,3,4-tetrazol-5-yl)phenyl]-N′-[3,5-bis(trifluoromethyl)phenyl]urea], the toxicity entry in data set [1] is reported as “low SCO-101 toxicity”. In data set [2], the “cell viability, SCO-101 combined with mitoxantrone or SN-38” value is reported as “re-sensitized”.
